Consider 10 molecules from ChEMBL document CHEMBL2406941, “Discovery of 'molecular switches' within a GIRK activator scaffold that afford selective GIRK inhibitors” (Bioorg Med Chem Lett, 2013).

Activity calls are given as the source filed them. The rule behind the calls is not given here.

Test [1] addresses T1, Kir3.1/Kir3.4 (Homo sapiens) (UniProt P48549+P48544). As to the kind of experiment: Activation of GIRK1/4 (unknown origin) relative to control. The class given is protein-complex assay.
The target of test [2] is Kir3.2/Kir3.3 (Homo sapiens) (UniProt P48051+Q92806). As to the kind of experiment: Activation of GIRK2/3 (unknown origin). The class given is protein-complex assay.
In test [3] the target is T2, Kir3.1/Kir3.2 (Homo sapiens, UniProt P48051+P48549).
T2 sequence (P48549 whole entry): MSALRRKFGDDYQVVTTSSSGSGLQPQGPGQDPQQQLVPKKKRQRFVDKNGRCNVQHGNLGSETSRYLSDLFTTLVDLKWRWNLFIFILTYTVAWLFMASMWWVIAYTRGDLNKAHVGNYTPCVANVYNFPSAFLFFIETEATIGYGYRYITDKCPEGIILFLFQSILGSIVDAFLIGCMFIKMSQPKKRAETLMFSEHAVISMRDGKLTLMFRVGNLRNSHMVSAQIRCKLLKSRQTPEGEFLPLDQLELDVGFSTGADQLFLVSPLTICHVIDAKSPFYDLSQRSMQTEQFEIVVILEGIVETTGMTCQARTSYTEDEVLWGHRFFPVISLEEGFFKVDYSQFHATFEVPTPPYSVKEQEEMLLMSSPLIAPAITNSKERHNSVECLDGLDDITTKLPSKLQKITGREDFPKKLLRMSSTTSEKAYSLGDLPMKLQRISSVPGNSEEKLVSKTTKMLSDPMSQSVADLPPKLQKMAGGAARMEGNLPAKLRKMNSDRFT
T2 sequence (P48051 whole entry): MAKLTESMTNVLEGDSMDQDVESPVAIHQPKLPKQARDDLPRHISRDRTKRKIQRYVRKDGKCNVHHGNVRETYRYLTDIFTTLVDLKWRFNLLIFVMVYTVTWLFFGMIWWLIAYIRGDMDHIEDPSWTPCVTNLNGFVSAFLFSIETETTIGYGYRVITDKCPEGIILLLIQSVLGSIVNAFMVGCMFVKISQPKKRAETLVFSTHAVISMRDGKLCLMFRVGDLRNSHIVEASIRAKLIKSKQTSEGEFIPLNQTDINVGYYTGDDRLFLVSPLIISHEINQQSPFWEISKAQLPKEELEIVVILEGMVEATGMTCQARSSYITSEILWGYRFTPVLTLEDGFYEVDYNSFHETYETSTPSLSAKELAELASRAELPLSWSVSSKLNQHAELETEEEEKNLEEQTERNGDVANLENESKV
As to the kind of experiment: Activation of GIRK1/2 (unknown origin) by thallium flux assay. It is filed as protein-complex assay.

In test [4] the target is T3, Kir3.1/Kir3.2 (Homo sapiens) (UniProt P48549+P48051). In words: Activation of GIRK1/2 (unknown origin) by thallium flux assay relative to control. It is filed as protein-complex assay.
For the next test, the target named is T4, Kir3.1/Kir3.4 (Homo sapiens, UniProt P48544+P48549).
T4 sequence (P48549 whole entry): T2 sequence (P48549 whole entry)
T4 sequence (P48544 whole entry): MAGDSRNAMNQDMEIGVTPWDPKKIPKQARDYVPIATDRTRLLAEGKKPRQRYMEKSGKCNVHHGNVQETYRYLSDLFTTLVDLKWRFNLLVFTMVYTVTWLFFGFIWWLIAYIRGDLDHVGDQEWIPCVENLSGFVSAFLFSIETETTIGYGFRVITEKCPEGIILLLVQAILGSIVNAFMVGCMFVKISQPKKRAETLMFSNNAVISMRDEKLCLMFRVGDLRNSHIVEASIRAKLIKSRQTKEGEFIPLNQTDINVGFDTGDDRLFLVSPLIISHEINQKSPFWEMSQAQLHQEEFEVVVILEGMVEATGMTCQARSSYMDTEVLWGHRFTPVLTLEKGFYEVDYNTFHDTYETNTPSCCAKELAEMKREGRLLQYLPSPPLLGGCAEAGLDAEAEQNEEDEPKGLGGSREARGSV
As to the kind of experiment: Activation of GIRK1/4 (unknown origin). It is filed as protein-complex assay.

Test [5] is described as follows: Inhibition of GIRK (unknown origin). Also noted: species or system Homo sapiens.
Test [6] is described as follows: Activation of GIRK (unknown origin). Also noted: species or system Homo sapiens.
Test [7] deals with T5, G protein-activated inward rectifier potassium channel 2 (Homo sapiens) (UniProt P48051).
T5 sequence (whole entry): T2 sequence (P48051 whole entry)
In words: Activation of GIRK2 (unknown origin).

For test [8], the target named is T1, Kir3.1/Kir3.4 (Homo sapiens). In words: Activation of GIRK1/4 (unknown origin) relative to ML297. It is filed as protein-complex assay.
Test [9] concerns the target T2, Kir3.1/Kir3.2. In words: Activation of GIRK1/2 (unknown origin). It is filed as protein-complex assay.
Test [10] deals with T3, Kir3.1/Kir3.2 (Homo sapiens). In words: Activation of GIRK1/2 (unknown origin) relative to ML297. The class given is protein-complex assay.

With `Cc1cc(NC(=O)Nc2ccccc2)n(-c2ccccc2)n1`, the Efficacy in test [1] turned out to be 93%; in test [4], 97%. For the same molecule, the result in test [2] was inactive. Moreover, the EC50 – broadly, the concentration giving half of the maximal effect – on Kir3.1/Kir3.2 [3] is 1400 nM; at Kir3.1/Kir3.4 it was 690 nM.
In the case of `CN1CCc2cc(Cl)c(O)cc2[C@@H](c2ccccc2)C1` [SCH-23390], the IC50 (in general, the concentration at which inhibition is half-maximal) in [5] turned out to be 4000 nM.
Regarding `C[C@@H]1O[C@@H](O[C@H]2[C@H](Oc3cc(O)c4c(c3)O[C@H](c3ccc(O)cc3)CC4=O)O[C@H](CO)[C@@H](O)[C@@H]2O)[C@H](O)[C@H](O)[C@H]1O` [NARINGIN], in [6], the EC50 was greater than 100000 nM.
On to `Cc1cc(NC(=O)Nc2ccc(F)c(F)c2)n(Cc2ccccc2)n1`, for which the result in test [7] and in test [2] was inactive. In addition, the Efficacy in test [8] came to 99%; in test [10], 87%. In addition, the EC50 on Kir3.1/Kir3.2 [9] amounted to 70 nM; at Kir3.1/Kir3.4, 110 nM.
Take `Cc1cc(NC(=O)Nc2ccc(F)c(F)c2)n(-c2ccc(F)cc2)n1`: the result in test [7] and in test [2] was inactive. For the same molecule, the Efficacy stood at 57% in test [8] and 78% in [10]. Besides, the results for the EC50 on Kir3.1/Kir3.2 [9] and on Kir3.1/Kir3.4 were 190 nM and 540 nM, respectively.
Consider `O=C(Nc1cccc(Cl)c1)Nc1cc(C2CC2)nn1-c1ccccc1`, for which the Efficacy in test [8] came to 39%; in [10], 37%. Besides, the EC50 on Kir3.1/Kir3.2 [9] was 1400 nM; at Kir3.1/Kir3.4, 720 nM.
The matching figures for `O=C(Nc1ccc(F)c(Cl)c1)Nc1cc(C2CC2)nn1Cc1ccccc1`: 83%, 47%, 210 nM and 320 nM.
Turning to `O=C(Nc1cccc(F)c1)Nc1cc(C2CC2)nn1Cc1ccccc1`, the Efficacy turned out to be 85% in [8] and 46% in test [10]. The EC50 amounted to 530 nM on Kir3.1/Kir3.2 [9] and 780 nM at Kir3.1/Kir3.4.
For `Cc1cc(NC(=O)Nc2ccc(F)c(F)c2)n(-c2ccccc2)n1`, the Efficacy in test [1] is 93%; in [4], 194%. The outcome in test [2] was inactive. Also, the values for the EC50 on Kir3.1/Kir3.2 [3] and on Kir3.1/Kir3.4 were 160 nM and 1800 nM, respectively.
`Cc1cc(NC(=O)Nc2ccc(F)c(F)c2)n(CC(F)(F)F)n1`: the result in test [7] and in test [2] was inactive. Moreover, the results for the Efficacy in test [8] and in [10] were 103% and 96%, respectively. Moreover, the EC50 at Kir3.1/Kir3.2 [9] came out at 460 nM; at Kir3.1/Kir3.4, 1300 nM.
